Reference: patent US9572830B2, “Uridine effects on dopamine release” (MASSACHUSETTS INSTITUTE OF TECHNOLOGY, priority 2004, dated 2017)

What was measured:
[1] = system: neurotransmitter release in right corpus striatum; assay: Microdialysis of right corpus striatum of UMP-fed rats before, during and after potassium depolarization; format: in vivo, rat; details: striatal microdialysate
Method: (§1) Retired breeder rats consumed a diet containing normal chow (Harlan Tech Lad, Madison, Wis.) supplemented with or without uridine 5′-monophosphate (UMP) (2.5%, w/w)—at a final concentration of 500 mg/kg/day, for a period of six weeks. Microdialysis was performed with cannulas implanted directly within the right corpus striatum of the control and treated rats. Cannulas were implanted on day 1, and samples were collected on days 3 and 4. Micro-dialysates (22.5 microliter, collected over 15 minutes) were assayed for dopamine (DA), 3,4-dihydroxyphenylacetic acid (DOPAC), homovanillic acid (HVA), 5-hydroxy-tryptamine (5-HT) and 5-hydroxyindoleacetic acid (5-HIAA). Real-time neurotransmitter level measurements were taken on samples drawn prior to and following depolarization of the neuron membrane via local application of […] potassium chloride (KCl) solution. Animals were then sacrificed, and striatum, hippocampus and temporal cortex were assayed for DA, DOPAC, HVA, 5HT, 5HIAA, DNA, protein and phosphatidyl choline (PC) content. DA and metabolites in dialysates and tissue samples were determined using an ESA Coulochem 11 5100A detector (E1=−175 mV; E2=+325 mV; Eguard=350 mV) with an ESA Microdialysis Cell (model 5014B, ESA, North Chelmsford, Mass.). The mobile phase (MD-TM, ESA) consisted of 75 mM NaH2PO4, 1.7 mM 1-octanesulfonic acid, 100 ?l/L Triethylamine, 25 ?M EDTA, 10% acetonitrile, pH 3.0. The flow rate was 0.4 mL/min. The column (ESA MD 150, 3×150 mm, 3 ?m, 120 Å) was kept in a 40° C. column oven. Samples were injected to HPLC by an Alltech 580 autosampler (Alltech, Deerfield, Ill.) and maintained to 4° C. with a cooling tray during analysis. Data were captured by Alltech AllChrom™ data system, and analyzed with AllChrom plus™ software. A timeline program, which could change the detection gain during sample separation and detection, was used to make it possible to get low DA and high metabolites concentration data in dialysate through one injection. Real-time neurotransmitter levels were assayed by measuring the faradaic current at the respective oxidation potentials with a carbon fiber electrode inserted through the cannula.

striatum = assay: Total tissue content of DA, 5-HT and metabolites in striatum after sacrifice; format: in vivo, rat; details: UMP-fed rats vs control
Method: as §1, with “injection.” for “injection. Real-time neurotransmitter levels were assayed by measuring the faradaic current at the respective oxidation potentials with a carbon fiber electrode inserted through the cannula.”

[2] = UMP-fed rat vs control, before stimulation
[3] = UMP-fed rat vs control, during and after stimulation
[4] = rats fed UMP 2.5% w/w in chow (500 mg/kg/day) for six weeks, depolarization by local 100 nm KCl, vs control rat
[5] = striatum and striatal extracellular fluid (ECF)

SMILES: O=c1ccn([C@@H]2O[C@H](COP(=O)(O)O)[C@@H](O)[C@H]2O)c(=O)[nH]1 [UMP, uridine 5′-monophosphate]
- basal level of 5-HIAA [1, 2]: lower basal levels
- basal level of DOPAC [1, 2]: lower basal levels
- basal level of HVA [1, 2]: lower basal levels
- release of 5-HIAA on potassium stimulation [1, 3]: increased, although by a smaller margin than DA and 5-HT, after but not during stimulation
- release of DOPAC on potassium stimulation [1, 3]: increased, although by a smaller margin than DA and 5-HT, after but not during stimulation
- release of HVA on potassium stimulation [1, 3]: increased, although by a smaller margin than DA and 5-HT, after but not during stimulation
- release of 5-HT during and after depolarization [1, 4]: enhanced
- release of DA during and after depolarization [1, 4]: enhanced
- release of DA during and after depolarization ([1]; rats fed UMP 2.5% w/w in chow (500 mg/kg/day) for six weeks, depolarization by local 100 nm KCl, vs control rat, listed as uridine monophosphate): significantly enhanced
- total level of 5-HT in the striatum (striatum; striatal tissue): did not affect
- total level of DA in the striatum (striatum; striatal tissue): did not affect
- total striatal level of 5-HIAA (striatum; [5]): slightly reduced
- total striatal level of DOPAC (striatum; [5]): slightly reduced
- total striatal level of HVA (striatum; [5]): slightly reduced
- total striatal levels of DA metabolites (striatum; summary statement): decreased
